For assay [1], the system named is Bacillus subtilis (vegetative). The assay is described as follows: Bacteriological sterility: log reduction on cortical bone samples. It is filed as cell-based. The following applies: single process step; for Microbiological Log Reductions T2: full cycle time; for Microbiological Log Reductions T1: one quarter cycle time. The method, then: (§1) Bacteriological Sterility: Cortical bone samples were subjected to the previous steps of the process. […] The samples were assayed for bacteria activity, using standard assays.

Another assay concerns Candida albicans. The assay is described as above. Format: cell-based. The following applies: single process step; for Microbiological Log Reductions T2: full cycle time; for Microbiological Log Reductions T1: one quarter cycle time. The method, then:
as §1

A further assay relates to Escherichia coli. The description is as above. Format: cell-based. Particulars: single process step; for Microbiological Log Reductions T2: full cycle time; for Microbiological Log Reductions T1: one quarter cycle time. How it is done: as §1
Another assay relates to Pseudomonas aeruginosa. The assay is described as above. Format: cell-based. Particulars: single process step; for Microbiological Log Reductions T2: full cycle time; for Microbiological Log Reductions T1: one quarter cycle time. How it is done: as §1
The next assay relates to Staphylococcus aureus. The assay is described as above. It is filed as cell-based. Particulars: single process step; for Microbiological Log Reductions T2: full cycle time; for Microbiological Log Reductions T1: one quarter cycle time. How it is done: as §1
Assay [2] deals with Staphylococcus epidermidis. Described as above. Particulars: single process step; for Microbiological Log Reductions T2: full cycle time; for Microbiological Log Reductions T1: one quarter cycle time. Format: cell-based. The method, then:
as §1

The conditions of assay [3]: 32% DBM in hyaluronan carrier, histology after 28 days. The method, then: Osteoinductivity: Cortical bone from three donors ([…], […], […]) was processed using a control process, 0 hour H2O2 with no sonication, a treatment process with 1 hour, 3 hours, and 5 hours of H2O2 treatment, and a negative control. After processing, the bone was ground, demineralized, and prepared into 32% Demineralized Bone Matrix in a hyaluronan carrier. Samples (15 mg) were implanted bilaterally into the hamstring muscle in an athymic mouse model, approved by the University of Medicine and Dentistry of New Jersey animal care and use committee. Implants were evaluated histologically after 28 days.

Where two headings read alike, the source gives them in different places.

Regarding `OO` [H2O2, hydrogen peroxide], the “Microbiological Log Reductions T2” value in assay [1] is given as more than 5.25 Log; in the assay on Candida albicans, more than 5.10 Log; with Escherichia coli, more than 5.19 Log; in the assay on Pseudomonas aeruginosa, more than 5.09 Log; in the assay on Staphylococcus aureus, more than 5.93 Log; in assay [2], more than 5.21 Log. Also, the “Microbiological Log Reductions T1” value is listed as more than 5.25 Log in assay [1]; more than 5.47 Log in the assay on Candida albicans; more than 5.19 Log with Escherichia coli; more than 5.09 Log in the assay with Pseudomonas aeruginosa; more than 5.93 Log with Staphylococcus aureus; more than 5.21 Log in assay [2]. In addition, the “mean (SD) osteoinductivity score” value in assay [3] (1 hour H2O2 treatment of bone) is given as 3.04 (0.97); in assay [3] (3 hours H2O2 treatment of bone), 2.57 (1.36); in assay [3] (5 hours H2O2 treatment of bone), 1.47 (1.10).
For Triton X-100, the “Microbiological Log Reductions T2” value is reported as 2.41 Log in assay [1]; 1.58 Log with Candida albicans; 1.82 Log in the assay on Escherichia coli; 3.40 Log in the assay on Pseudomonas aeruginosa; 0.20 Log in the assay on Staphylococcus aureus; 0.41 Log in assay [2]. Also, the “Microbiological Log Reductions T1” value is 2.56 Log in assay [1]; 1.78 Log in the assay on Candida albicans; 0.03 Log in the assay on Escherichia coli; 2.48 Log in the assay with Pseudomonas aeruginosa; −0.59 Log with Staphylococcus aureus; 0.56 Log in assay [2].

The record behind these values is US20040037735A1, “Allograft tissue purification process for cleaning bone” (priority 2002, published 2004).
